Measured values taken from patent publication US10251892B2, “Bicyclic heterocycles as FGFR4 inhibitors” (Incyte Corporation, priority 2015, dated 2019).

These compounds were tested against FGFR3 enzyme (Homo sapiens (Human), UniProt P22607) (assay: FGFR Enzymatic Assay (peptide phosphorylation, FRET), FGFR3). Details: IC50 ratio showing FGFR3 selectivity; pre-incubated for 4 hours.
Assay type: biochemical
Method: The inhibitor potency of the exemplified compounds was measured in an enzyme assay that measures peptide phosphorylation using FRET measurements to detect product formation. Inhibitors were serially diluted in DMSO and a volume of 0.5 μL was transferred to the wells of a 384-well plate.
GraphPad prism3 was used to analyze the data.

Chain of FGFR3 enzyme (P22607 23-806): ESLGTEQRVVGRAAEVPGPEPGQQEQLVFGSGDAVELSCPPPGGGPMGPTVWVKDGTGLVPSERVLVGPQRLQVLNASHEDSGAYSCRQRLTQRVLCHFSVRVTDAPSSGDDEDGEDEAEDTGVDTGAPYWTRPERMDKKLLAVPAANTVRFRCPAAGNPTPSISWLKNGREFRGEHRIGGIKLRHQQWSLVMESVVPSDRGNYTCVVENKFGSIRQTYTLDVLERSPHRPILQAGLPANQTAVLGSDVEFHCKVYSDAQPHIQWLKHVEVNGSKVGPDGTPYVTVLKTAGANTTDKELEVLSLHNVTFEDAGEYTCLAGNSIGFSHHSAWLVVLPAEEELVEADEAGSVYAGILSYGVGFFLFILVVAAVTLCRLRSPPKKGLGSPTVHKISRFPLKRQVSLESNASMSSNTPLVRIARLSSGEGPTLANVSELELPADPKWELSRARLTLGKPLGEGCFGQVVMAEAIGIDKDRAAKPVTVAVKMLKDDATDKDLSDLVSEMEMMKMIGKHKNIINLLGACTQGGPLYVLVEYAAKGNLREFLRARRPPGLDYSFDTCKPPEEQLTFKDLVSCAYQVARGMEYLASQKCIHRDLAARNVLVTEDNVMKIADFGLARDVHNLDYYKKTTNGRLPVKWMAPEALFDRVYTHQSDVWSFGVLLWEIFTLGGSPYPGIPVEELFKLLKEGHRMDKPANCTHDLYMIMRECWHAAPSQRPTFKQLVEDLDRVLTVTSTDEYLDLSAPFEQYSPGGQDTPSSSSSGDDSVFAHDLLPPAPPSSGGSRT

SMILES	FGFR1/FGFR3	FGFR4/FGFR3
COc1cc(OC)c(F)c(N2Cc3cnc(-c4cn(C)nc4C)cc3N(c3cccc(F)c3)C2=O)c1F [Example 99, 3-(2,6-difluoro-3,5-dimethoxyphenyl)-7-(1,3-dimethyl-1H-pyrazol-4-yl)-1-(3-fluorophenyl)-3,4-dihydropyrido[4,3-d]pyrimidin-2(1H)-one]	>5	>5
CCN1C(=O)N(c2c(F)c(OC)cc(OC)c2F)Cc2cnc(-c3ccc(C4(C#N)CCC4)cc3)cc21 [Example 181, 1-(4-(3-(2,6-difluoro-3,5-dimethoxyphenyl)-1-ethyl-2-oxo-1,2,3,4-tetrahydropyrido[4,3-d]pyrimidin-7-yl)phenyl)cyclobutanecarbonitrile]	>5	>10
CCN1C(=O)N(c2c(F)c(OC)cc(OC)c2F)Cc2cnc(-c3ccc(CC#N)cc3)cc21 [Example 180, 2-(4-(3-(2,6-difluoro-3,5-dimethoxyphenyl)-1-ethyl-2-oxo-1,2,3,4-tetrahydropyrido[4,3-d]pyrimidin-7-yl)phenyl)acetonitrile]	>5	>5
COc1cc(OC)c(F)c(N2Cc3cnc(-c4cn(C)nc4C)cc3N(Cc3cccnn3)C2=O)c1F [Example 88, 3-(2,6-difluoro-3,5-dimethoxyphenyl)-7-(1,3-dimethyl-1H-pyrazol-4-yl)-1-(pyridazin-3-ylmethyl)-3,4-dihydropyrido[4,3-d]pyrimidin-2(1H)-one]	>5	>10
COc1cc(OC)c(F)c(N2Cc3cnc(-c4cn(C)nc4C)cc3N(C3CC3)C2=O)c1F [Example 83, 1-cyclopropyl-3-(2,6-difluoro-3,5-dimethoxyphenyl)-7-(1,3-dimethyl-1H-pyrazol-4-yl)-3,4-dihydropyrido[4,3-d]pyrimidin-2(1H)-one]	>5	>5
COc1cc(OC)c(F)c(N2Cc3cnc(-c4cn(C)nc4C)cc3N(c3ccc(CC#N)cc3)C2=O)c1F [Example 97, 2-(4-(3-(2,6-difluoro-3,5-dimethoxyphenyl)-7-(1,3-dimethyl-1H-pyrazol-4-yl)-2-oxo-3,4-dihydropyrido[4,3-d]pyrimidin-1(2H)-yl)phenyl)acetonitrile]	>5	>10
COc1cc(OC)c(F)c(N2Cc3cnc(-c4cn(C)nc4C)cc3N(c3cccc(-c4cnnn4C)c3)C2=O)c1F [Example 89, 3-(2,6-difluoro-3,5-dimethoxyphenyl)-7-(1,3-dimethyl-1H-pyrazol-4-yl)-1-(3-(1-methyl-1H-1,2,3-triazol-5-yl)phenyl)-3,4-dihydropyrido[4,3-d]pyrimidin-2(1H)-one]	>5	>10
COc1cc(OC)c(F)c(N2Cc3cnc(-c4cn(C)nc4C)cc3N(c3cn[nH]c3)C2=O)c1F [Example 129, 3-(2,6-difluoro-3,5-dimethoxyphenyl)-7-(1,3-dimethyl-1H-pyrazol-4-yl)-1-(1H-pyrazol-4-yl)-3,4-dihydropyrido[4,3-d]pyrimidin-2(1H)-one]	>5	>10
COc1cc(OC)c(F)c(N2Cc3cnc(-c4cn(C5CCN(CC#N)C5)nc4C)cc3C3(CC3)C2=O)c1F (centres unmarked) [Example 154, 2-(3-(4-(2′-(2,6-difluoro-3,5-dimethoxyphenyl)-3′-oxo-2′,3′-dihydro-1′H-spiro[cyclopropane-1,4′-[2,7]naphthyridine]-6′-yl)-3-methyl-1H-pyrazol-1-yl)pyrrolidin-1-yl)acetonitrile]	>5	>3
COc1cc(OC)c(F)c(N2Cc3cnc(-c4cn(C)nc4C)cc3N(Cc3ccnc(C)c3)C2=O)c1F [Example 68, 3-(2,6-difluoro-3,5-dimethoxyphenyl)-7-(1,3-dimethyl-1H-pyrazol-4-yl)-1-((2-methylpyridin-4-yl)methyl)-3,4-dihydropyrido[4,3-d]pyrimidin-2(1H)-one]	>5	>5
